Results reported in patent US10786505B2, “Administration of NEDD8-activating enzyme inhibitor and chemotherapeutic agents” (Millennium Pharmaceuticals, Inc., priority 2013, dated 2020).

Assays:
BxPC3 = assay: In vitro cell viability combination assay (CellTiter-Glo); format: cell-based; conditions: agent combined with MLN4924, vehicle DMSO, 72 hr
From the text: (§1) After normalization, the controls are discarded.
(§2) Otherwise, the classification is “Additivity”.

MIA PaCa-2 = assay: as above; format: cell-based; conditions: agent combined with MLN4924, vehicle DMSO, 72 hr
From the text: as §1, §2

PANC1 = assay: as above; format: cell-based; conditions: agent combined with MLN4924, vehicle DMSO, 72 hr
From the text: as §1, §2

PHTX02B xenograft model = assay: Combination of gemcitabine and MLN4924 in PHTX02B xenograft model; format: in vivo, mice
Procedure: (§3) The PHTX02B breast xenograft model was established from a patient-derived tumor collected during surgery from a person with invasive ductal carcinoma classified as triple negative breast cancer (ER-/PR-/Her2-) by IHC. […] Gemcitabine (Gemzar, Henry Schein, Inc, Pittsburgh Pa., and Myoderm Medical, Norristown, Pa.) is formulated in 0.9% saline and administered by intraperitoneal injection (IP) q3Dx4 (every 3 days for a total of 4 doses) at 2.5 mg/kg or 10 mg/kg, or by IV injection twice weekly (BIW) at 20 mg/kg IVU. […] Tumors are measured twice weekly using a vernier caliper. […] Tumor size and body weight are measured approximately twice a week for the duration of the study. […] Tumor growth continued to be monitored after the dosing period in some studies. […] Average tumor volume is reported as a function of time for selected groups of selected studies in Figures A, B, and C. Measurements from day 0 to 18, 21 or 22 are analyzed as specified in Tables 4-9. […] For each animal, the log tumor volume at day 0 is subtracted from the log tumor volume on the subsequent days. This difference vs. time is used to calculate an area under the curve (AUC) for each animal using the trapezoid rule. In instances when an animal in a treatment group is removed early from the study, the last observed tumor value is carried forward through all subsequent time points. […] The standard error of the synergy score is computed based on the variation in the AUC values among the animals. […] Otherwise, the combination is classified as antagonistic.

[1] = tested on: PHTX249Pa xenograft model; assay: Combination of gemcitabine and MLN4924 in PHTX249Pa xenograft model; format: in vivo, mice
Procedure: as §3, with “PHTX249 Pa pancreatic” for “PHTX02B breast”, “pancreatic adenocarcinoma.” for “invasive ductal carcinoma classified as triple negative breast cancer (ER-/PR-/Her2-) by IHC.”

A549 = assay: In vitro cell viability combination assay (CellTiter-Glo); conditions: 72 hr
Procedure: (§9) General Method: Cells are grown in their respective growth media, supplemented with 10% fetal bovine serum unless otherwise noted. […] A portion of each plate is used for positive controls (no agent is added), while another portion of each plate is used for negative controls (no cells are added). Viability is assessed with CellTiter-Glo® Cell Viability reagent used according to manufacturer's instructions (Promega). Luminescence is measured using a LEADseeker imaging system (GE Healthcare).
(§10) The viability data is normalized separately for each plate by scaling the data so that the median of the negative controls is 0 and the median of the positive controls is 100. More formally,
(§11) [formula] where Vi is the normalized viability of the i^th well, Ui is the raw viability measurement, median (U) is the median of the negative controls, and median (U+) is the median of the positive controls. After normalization, the controls are discarded.
(§12) where E1, E2, E3, E4, I1, I2, I3, S1, S2, S3, and S4 are parameters, CA and CB are the respective concentrations of agents A and B, and V is the normalized viability measurement. It is assumed that the error values are independent and identically distributed normal random variables.
(§13) The Combination Index is computed based on an isobologram, which is a slice of the dose response surface with constant viability. For the present analysis, the 50% isobologram, which is the dose contour that has 50% viability, is used. […] Since the choice of (DA, DB) can be arbitrary, the constraint DA/DB=EC50A/EC50B is used.
(§14) In such cases, Nonlinear Blending can be used as an alternative measure of synergy or additivity. Nonlinear Blending is found by considering a slice of the dose response surface that intersects both concentration axes and runs parallel to the viability axis. Let VA and VB be the viability where the slice intersects the drug A and B axes, respectively. Let Vmax and Vmin be the maximum and minimum viabilities along the slice. Let NLBS=min(VA,VB)−Vmin NLBA=Vmax−max(VA,VB) Define the Nonlinear Blending value to be NLBS if NLBS>NLBA and −NLBA otherwise.
(§15) After completing the analysis of individual plates, the results are combined across the replicates. For a given measure and a set of replicates, the overall mean and standard error are computed using weighted averaging. A null mean, which corresponded to an additive effect, is then compared with the overall mean. The null mean is 1 for the Combination Index and 0 for Nonlinear Blending. Next, a two sized Z-test is performed based on the estimated mean and standard error. This produces a p-value for each measure and each cell line.
(§16) After computing the mean, standard error, and p-value for each set of replicates, these values require interpretation. Thus, a standard procedure is used to produce a classification (synergy, additivity, subadditivity, antagonism, or inconclusive) in each case. If the Combination Index exists for more than half of the replicates, then these measures are used to make the classification.
(§17) Consider the case where the Combination Index is used to make the classification. If the p-value is greater than 0.05, the estimate for the Combination Index is not statistically different from 1. However, if the standard error is also very large, then the estimate is too uncertain to be informative. […] Otherwise, the classification is “Additivity”. When the p-value is less than 0.05, the estimate for the Combination Index is statistically different from 1. However, if the mean is still close to 1, then the difference is not of practical significance. Thus, the result is classified based on the mean. A mean in the range (0.8, 1.2) is considered close enough to 1 to be classified as Additivity. A mean in the range (0, 0.8) is considered low enough to be classified as Synergy. […] The threshold value of 2 can be derived from the definition of the Combination Index.

HCT116 = assay: as above; conditions: 48 hr
Procedure: as §9, §10, §11, §12, §13, §14, §15, §16, §17

[2] = tested on: PHTX02B breast xenograft model; assay: Combination of docetaxel and MLN4924 in PHTX02B xenograft model; format: in vivo, mice
From the text: The PHTX02B breast xenograft model was established from a patient-derived tumor collected during surgery from a person with invasive ductal carcinoma classified as triple negative breast cancer (ER−/PR−/Her2−) by IHC. PHTX02B tumor fragments (approximately 2×2×3 mm^3) are implanted into the subcutaneous space in the right dorsal flank of female SCID-NOD mice (age 5-7 weeks, Jackson Laboratory, Bar Harbor, Me.) using a 13-gauge trocar.
(§4) Docetaxel (Henry Schein, Inc., Pittsburgh Pa., Qilu Pharmaceutical Co., Ltd., Jinan, Shandong, China, and Sanofi-Aventis) is formulated in 0.9% saline and administered by intravenous injection (IV) once weekly (QW) at 5 mg/kg or 10 mg/kg.
(§5) Tumors are measured twice weekly using a vernier caliper. Tumor volumes are calculated using standard procedures (0.5×(length×width^2)). […] Tumor size and body weight are measured approximately twice a week for the duration of the study. Mice are euthanized when their tumor volume reached 10% of their body weight, or when the average tumor volume of a treatment or control group reached approximately 2000 mm^3. Tumor growth continued to be monitored after the dosing period in some studies. Average tumor volume is reported as a function of time for selected groups of selected studies in Figures A, B, and C.
(§6) Measurements from day 0 to 18, 21 or 22 are analyzed as specified in Tables 4-9. All tumor volumes have a value of 1 added to them before log10 transformation. For each animal, the log tumor volume at day 0 is subtracted from the log tumor volume on the subsequent days. This difference vs. time is used to calculate an area under the curve (AUC) for each animal using the trapezoid rule. […] The synergy score for the combination of agents A and B is defined as 100*(mean(AUCAB)−mean(AUCA)−mean(AUCB)+mean(AUCctl))/mean(AUCctl): where AUCAB, AUCA, AUCB, and AUCctl are the AUC values for animals in the combination group, the A group, the B group, and the control group, respectively. The standard error of the synergy score is computed based on the variation in the AUC values among the animals. […] If the P-value is above 0.05, then the combination is considered to be additive. If the P-value is below 0.05, and the synergy score is less than zero, then the combination is considered to be synergistic. […] Otherwise, the combination is classified as antagonistic.

[3] = tested on: NCI-H1650 xenograft model; assay: Combination of docetaxel and MLN4924 in NCI-H1650 xenograft model; format: in vivo, mice
From the text: NCI-H1650 (2×10^6) tumor cells in RPMI-1640 media are mixed with an equal volume of Matrigel (BD Biosciences) and aseptically injected into the subcutaneous space in the right dorsal flank of Balb/c Nude mice (age 4-6 weeks, Shanghai SINO-British SIPPR/BK Lab Animal Ltd.) using a 25-gauge needle.
as §4, §5, §6

LU1143 xenograft model = assay: Combination of docetaxel or carboplatin and MLN4924 in LU1143 xenograft model; format: in vivo, mice; conditions: 10 mg/kg docetaxel QW IV
Procedure: as §4
(§7) Carboplatin (CARBOplatin Injection, Hospira, Inc., Qilu Pharmaceutical Co., Ltd. Jinan, Shandong, China, and Teva Gry-Pharma GmbH, Ulm, Germany) is formulated in 0.9% saline and administered by IP injection once weekly (QW) at 50 mg/kg. The once weekly schedule is also described as every 7 days (Q7D).
as §5
Measurements from day 0 to 18, 21 or 22 are analyzed as specified in Tables 4-9. All tumor volumes have a value of 1 added to them before log10 transformation. For each animal, the log tumor volume at day 0 is subtracted from the log tumor volume on the subsequent days. This difference vs. time is used to calculate an area under the curve (AUC) for each animal using the trapezoid rule. […] The synergy score for the combination of agents A and B is defined as 100*(mean(AUCAB)−mean(AUCA)−mean(AUCB)+mean(AUCctl))/mean(AUCctl): where AUCAB, AUCA, AUCB, and AUCctl are the AUC values for animals in the combination group, the A group, the B group, and the control group, respectively. The standard error of the synergy score is computed based on the variation in the AUC values among the animals. […] If the P-value is above 0.05, then the combination is considered to be additive. […]

LXFE409 xenograft model = assay: Combination of docetaxel or carboplatin and MLN4924 in LXFE409 xenograft model; format: in vivo, mice
Procedure: LXFE409 squamous non small cell lung cancer tumor fragments are implanted into the subcutaneous space in the flank of female NMRI nu/nu mice (5-7 weeks, Janvier Labs, Saint Berthevin, France).
as §4, §7, §5, §6

NCI-H209 = assay: In vitro cell viability combination assay (CellTiter-Glo); conditions: agent combined with MLN4924, vehicle DMSO, 96 hr
Procedure: as §9, §10, §11, §12, §13, §14, §15, §16, §17

NCI-H510 = assay: as above; conditions: agent combined with MLN4924, vehicle DMSO, 96 hr
Procedure: as §9, §10, §11, §12, §13, §14, §15, §16, §17

NCI-H526 = assay: as above; conditions: agent combined with MLN4924, vehicle DMSO, 96 hr
Procedure: as §9, §10, §11, §12, §13, §14, §15, §16, §17

NCI-H82 = assay: as above; conditions: agent combined with MLN4924, vehicle DMSO, 96 hr
NCI-H69 = assay: as above; format: cell-based; conditions: agent combined with MLN4924, vehicle DMSO, 96 hr
From the text: as §1, §2

NCI-H69 xenograft model = assay: Combination of cisplatin and MLN4924 in NCI-H69 xenograft model; format: in vivo, mice; conditions: 4 mg/kg Cisplatin Q4Dx3 IP
Procedure: (§8) NCI-H69 or NCI-H82 small cell lung tumor fragments (30- to 40-mg) are implanted into the subcutaneous space in the area of the right flank of NCr nu/nu mice (7-10 weeks, Charles River Laboratories, Inc, Frederick Md. or Wilmington, Mass.) using a 12-gauge trocar.
as §5, §6

NCI-H82 xenograft model = assay: Combination of cisplatin and MLN4924 in NCI-H82 xenograft model; format: in vivo, mice
Procedure: as §8, §5, §6

[4] = agent combined with MLN4924, vehicle DMSO
[5] = agent combined with MLN4924, vehicle PBS

| Compound | Combination Index (A549; [4]) | Nonlinear Blending (A549; [4]) | Combination Index (HCT116; [4]) | Nonlinear Blending (HCT116; [4]) | Combination Index (NCI-H209) | Nonlinear Blending (NCI-H209) | Nonlinear Blending (NCI-H510) | Nonlinear Blending (NCI-H526) | Combination Index (NCI-H82) | Nonlinear Blending (NCI-H82) | Nonlinear Blending (NCI-H69) | Nonlinear Blending (A549; [5]) | Nonlinear Blending (HCT116; [5]) | further results |
| --- | --- | --- | --- | --- | --- | --- | --- | --- | --- | --- | --- | --- | --- | --- |
| Nc1ccn([C@@H]2O[C@H](CO)[C@@H](O)C2(F)F)c(=O)n1 [gemcitabine] | 1.44 ± 0.07 | −16 ± 3 | 0.49 ± 0.1 | 30 ± 3 |  |  |  |  |  |  |  |  |  | Combination Index (BxPC3): 1.49; Nonlinear Blending (BxPC3): −26.0; Combination Index (MIA PaCa-2): 1.15; Nonlinear Blending (MIA PaCa-2): −8.1; Combination Index (PANC1): 0.24; Nonlinear Blending (PANC1): 19.4; average tumor volume day 22 (PHTX02B xenograft model; 2.5 mg/kg gemcitabine Q3Dx4 IP): 1386.3 mm^3; average tumor volume day 22 (PHTX02B xenograft model; 10 mg/kg gemcitabine Q3Dx4 IP): 769.4 mm^3; tumor growth during the treatment period (in words) (PHTX02B xenograft model; FIG. 2, MLN4924 SC 30 mg/kg BID, gemcitabine 10 mg/kg IP q3dx4, single agents or their combination): inhibited tumor growth compared to the control vehicle group; average tumor volume day 18 ([1]; PHTX249Pa xenograft, 20 mg/kg gemcitabine BIW IV): 585.1 mm^3; tumor growth compared to the control vehicle group (in words) ([1]; PHTX249 Pa xenograft, gemcitabine 20 mg/kg IV BIW, MLN4924 90 mg/kg SC BID BIW, single agents or their combination): inhibited tumor growth compared to the control vehicle group |
| CC(=O)O[C@@]12CO[C@@H]1C[C@H](O)[C@@]1(C)C(=O)[C@H](O)C3=C(C)[C@@H](OC(=O)[C@H](O)[C@@H](NC(=O)OC(C)(C)C)c4ccccc4)C[C@@](O)([C@@H](OC(=O)c4ccccc4)[C@H]21)C3(C)C [docetaxel] | 1.00 ± 0.1 | 1 ± 1 | 1.01 ± 0.09 | 7 ± 2 | 1.27 ± 0.09 | −16 ± 5 | −13 ± 4 | −23 ± 3 | 1.45 ± 0.09 | −11 ± 2 |  |  |  | tumor growth during the treatment period (in words) ([2]; PHTX02B breast xenograft, FIG. 1, MLN4924 SC 60 mg/kg BID 5 days on/5 days off, docetaxel 5 mg/kg IV QW, single agents or their combination): inhibited tumor growth compared to the control vehicle group; average tumor volume day 21 ([2]; PHTX02B xenograft, 5 mg/kg docetaxel QW IV): 736.3 mm^3; average tumor volume day 21 ([3]; 5 mg/kg docetaxel QW IV): 719.2 mm^3; average tumor volume day 21 ([3]; 10 mg/kg docetaxel QW IV): 282.7 mm^3; average tumor volume day 21 (LU1143 xenograft model): 498.9 mm^3; tumor course after the treatment period, to end of study on day 95 (in words) (LXFE409 xenograft model; LXFE409 sqNSCLC model, FIG. 4, MLN4924 120 mg/kg SC Q2Dx3/week for 3 weeks, docetaxel 10 mg/kg IV QW for 3 weeks, single agents or combination): regrew after the treatment period ended; average tumor volume day 21 (LXFE409 xenograft model; LXFE409 xenograft, 10 mg/kg docetaxel QW IV): 44.6 mm^3; Combination Index (NCI-H510): 1.15 ± 0.08; Combination Index (NCI-H526): 1.38 ± 0.06 |
| O=C1[O][Pt]2([NH][C@@H]3CCCC[C@H]3[NH]2)[O]C1=O [oxaliplatin] |  |  |  |  |  | −5 ± 2 | 2 ± 3 | −8 ± 4 |  | 6 ± 2 | 11 ± 3 | 2 ± 2 | 10 ± 5 |  |
| N.N.[Cl][Pt][Cl] [cisplatin] | 0.65 ± 0.03 | 11 ± 5 | 0.76 ± 0.02 | 21 ± 1 | 1.28 ± 0.08 | −15 ± 3 | 20 ± 3 |  | 0.81 ± 0.07 | 10 ± 2 | −7 ± 3 | 10 ± 1 | 14 ± 6 | Combination Index (NCI-H69): 1.28 ± 0.2; average tumor volume day 22 (NCI-H69 xenograft model): 213.6 mm^3; average tumor volume day 22 (NCI-H82 xenograft model; 2 mg/kg cisplatin Q4Dx3 IP): 628.7 mm^3; average tumor volume day 22 (NCI-H82 xenograft model; 4 mg/kg cisplatin Q4Dx3 IP): 445.2 mm^3; Combination Index (A549; [5]): 0.75 ± 0.05; Combination Index (HCT116; [5]): 0.76 ± 0.09 |
| CC(=O)O[C@H]1C(=O)[C@@]2(C)[C@H]([C@H](OC(=O)c3ccccc3)[C@]3(O)C[C@H](OC(=O)[C@H](O)[C@@H](NC(=O)c4ccccc4)c4ccccc4)C(C)=C1C3(C)C)[C@]1(OC(C)=O)CO[C@@H]1C[C@@H]2O [paclitaxel] |  | −6 ± 0.9 |  | −14 ± 2 |  | −8 ± 3 | −22 ± 4 | −26 ± 3 |  | −16 ± 2 | −16 ± 4 |  |  |  |
